Laboratory results as given in patent publication US20250319067A1, “Improved Pharmacokinetics of Tryptamine Prodrugs” (Reunion Neuroscience, Inc., priority 2023, published 2025).

What was measured:
[1] = Non-GLP single dose, dose range study in rats (MTD); settings: rat, in vivo, sc
Description: Non-GLP single dose, dose range studies with RE104 HCl were performed in rats and dogs to explore toxicity and establish a maximum tolerated dose (MTD) by SC injection. The rat study explored dosing with two formulations, water for injection (WFI) at pH 3-4 and phosphate buffered saline (PBS) with a final formulation pH of 4.5-5. Single doses of 20 to 300 mg/kg formulated in WFI produced dose-dependent pharmacologically related systemic serotonergic clinical signs. Similarly, SC administration with doses of 25 to 225 mg/kg RE104 formulated in PBS caused clinical signs of SS around 1 hour with recovery by 24 hours.
Clinical signs were reversible by Recovery Day 13 (Study Day 14). Microscopic injection site pathology was seen following a single dose of 225 mg/kg. The MTD in the rat for RE104 in WFI was 150 mg/kg and in PBS was 75 mg/kg.

[2] = GLP 14-day extended single SC dose toxicity study in rats; settings: rat; for NOAEL at 14 days: in vivo
Description: (§1) In a GLP 14-day extended single SC dose toxicity study in rats, doses of 0 (PBS), 10, 25 and 75 mg/kg were evaluated. Animals were necropsied on Study Day 2 and Day 14 (also referred to as Recovery Day 13) post-dosing.
(§2) A non-GLP dose range study was performed in the dog in order to determine an MTD. Single SC doses of 7.5, 15 and 20 mg/kg were evaluated.

[3] = system: rats; assay: as above
Description: as §1, §2

[4] = system: rat hepatocytes; assay: Hepatocyte intrinsic clearance, rat; type: in vitro ADME
From the text: (§3) In human, rat, rabbit, dog and monkey hepatocytes, the metabolite profile of RE104 was qualitatively similar across these species with only minor differences.

[5] = system: monkey hepatocytes; assay: Hepatocyte intrinsic clearance, monkey; type: in vitro ADME
From the text: as §3

[6] = system: dog hepatocytes; assay: Hepatocyte intrinsic clearance, dog; type: in vitro ADME
From the text: as §3

[7] = Prodrug cleavage in mouse plasma; type: in vitro ADME; settings: 37° C.
Description: (§4) Mean values from 3 replicate assays are reported. See the Supplemental Methods for additional details.
(§5) Triplicate aliquots (50 μL) of each spiked plasma solution were immediately added to 200 μL of ice-cold methanol/acetonitrile solution (50:50 v/v) containing the internal standards to generate time zero samples. Spiked plasma solutions were incubated at 37° C. in an orbital shaker set to 75 rpm, and 50-μL samples were taken in triplicate after 30 minutes and 1, 2, and 4 hours of incubation. Each sample was immediately added to 200 μL ofice-cold methanol/acetonitrile solution containing the internal standard(s) to terminate the reaction. Samples were mixed by vortex and then stored at −80° C. until analysis.
(§6) Calibration standards were prepared in plasma for each species and analyzed in batches by LC-MS/MS. Sample batches consisted of 3 replicates of a system suitability standard (containing the analyte and internal standard), the appropriate calibration standards in ascending order including a blank sample without internal standard, a zero sample (with internal standard), and at least 6 nonzero standards and the assay samples, followed by the 3 replicates of the system suitability sample.

[8] = Prodrug cleavage in rat plasma; type: in vitro ADME; settings: 37° C.
Description: as §4, §5, §6

[9] = Prodrug cleavage in dog plasma; type: in vitro ADME; settings: after 4 hours of incubation
Description: as §4, §5, §6

[10] = Prodrug cleavage in human plasma; type: in vitro ADME; settings: human plasma, 37° C.
Description: as §4, §5, §6

[11] = Metabolite profiling in monkey plasma after SC RE104; type: in vivo, cynomolgus monkey; settings: pooled plasma 0 to 12 hours post dose, SC 0.5 mg/kg RE104
From the text: Blood samples were centrifuged to obtain plasma.

[12] = in vivo; settings: male, beagle, dog, plasma
Description: Two consecutive doses were separated by z7 days. Plasma samples were analyzed using an LC-MS/MS method (lower limit of quantification of 1.00 ng/mL for both analytes).
(§7) Pharmacokinetic parameters were calculated using Phoenix WinNonlin, version 6.3 or 8.2 (Certara, Princeton, NJ, USA).
For dog PK assessments, approximately 0.5 mL of blood was collected via superficial vein before dose and at 5 (for IV and SC injections only), 15, and 30 minutes and 1, 2, 4, 8, 16, 24, 48, and 72 hours post dose into tubes containing K2EDTA with 10 mM Dichlorvos as the anticoagulant and stabilizer, respectively.

[13] = target: human recombinant 5-HT2A receptors (Homo sapiens, UniProt P28223); assay: 5-HT2A cellular agonist effect assay (IP1, HTRF); type: cell-based; set-up: host or cells: HEK-293
Chain of human recombinant 5-HT2A receptors (P28223 whole entry): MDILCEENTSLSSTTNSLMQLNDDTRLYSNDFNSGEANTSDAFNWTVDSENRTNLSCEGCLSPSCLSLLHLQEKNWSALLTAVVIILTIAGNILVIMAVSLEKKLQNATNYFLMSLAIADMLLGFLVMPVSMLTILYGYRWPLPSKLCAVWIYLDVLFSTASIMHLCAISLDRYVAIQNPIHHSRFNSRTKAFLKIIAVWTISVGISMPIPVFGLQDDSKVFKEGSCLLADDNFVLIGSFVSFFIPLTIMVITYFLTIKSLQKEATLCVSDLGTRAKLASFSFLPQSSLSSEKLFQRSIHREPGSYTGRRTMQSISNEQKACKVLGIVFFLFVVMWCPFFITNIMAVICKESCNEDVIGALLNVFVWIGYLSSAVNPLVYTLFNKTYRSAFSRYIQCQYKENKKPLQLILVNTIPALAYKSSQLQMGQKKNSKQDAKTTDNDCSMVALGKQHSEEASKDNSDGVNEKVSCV
Description: Activation was calculated as a percentage of the response to the positive control (10 μM 5-HT).
EC50 and IC50 values were determined by nonlinear regression analysis of the concentration-response curves generated with mean replicate values using Hill equation curve fitting. For all receptor pharmacology assays, data were analyzed with software developed at Cerep (Hill software, Celle-Lévescault, France) and validated by comparison with data generated by the commercial software SigmaPlot® 4.0 for Windows®(01997 by SPSS Inc).

[14] = target: human recombinant 5-HT2B receptors (Homo sapiens, UniProt P41595); assay: 5-HT2B agonist radioligand binding assay ([125I]DOI)
Chain of human recombinant 5-HT2B receptors (P41595 whole entry): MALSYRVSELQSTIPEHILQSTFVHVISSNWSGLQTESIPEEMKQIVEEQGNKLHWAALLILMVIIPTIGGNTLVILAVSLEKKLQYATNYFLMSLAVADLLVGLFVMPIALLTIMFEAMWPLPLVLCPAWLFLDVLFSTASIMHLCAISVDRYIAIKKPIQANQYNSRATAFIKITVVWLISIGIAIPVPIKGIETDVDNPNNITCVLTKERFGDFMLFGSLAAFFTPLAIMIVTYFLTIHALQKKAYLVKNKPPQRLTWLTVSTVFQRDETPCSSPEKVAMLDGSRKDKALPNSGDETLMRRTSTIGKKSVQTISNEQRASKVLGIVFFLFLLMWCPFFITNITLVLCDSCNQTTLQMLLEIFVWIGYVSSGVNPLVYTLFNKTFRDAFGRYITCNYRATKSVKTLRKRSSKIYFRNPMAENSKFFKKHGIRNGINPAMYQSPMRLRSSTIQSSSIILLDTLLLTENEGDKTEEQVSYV
Description: Increasing concentrations of RE104 were incubated with 0.2 nM [^125I]DOI in CHO cell cultures expressing human recombinant 5-HT2B receptors.
Radioligand concentration was measured by scintillation counting; compound binding was calculated as percent inhibition of the binding of [^125I]DOI. In agonist activity assays, test concentrations of RE104 were incubated with HEK-293 cells expressing human recombinant 5-HT2A receptors; IP1 production was detected using homogeneous time-resolved fluorescence. Activation was calculated as a percentage of the response to the positive control (10 μM 5-HT).
Inhibition constants were calculated by using the Cheng-Prusoff equation Ki=IC50/(1+L/KD), where L=radioligand concentration and KD=radioligand affinity for the receptor (determined with a Scatchard plot). In the functional activity assay test concentrations of RE104 were 10 nM, 30 nM, 100 nM, 300 nM, 1 μM, 3 μM, 10 μM, and 30 μM. EC50 and IC50 values were determined by nonlinear regression analysis of the concentration-response curves generated with mean replicate values using Hill equation curve fitting.

[15] = GLP 14-day extended single SC dose toxicity study in dogs; settings: beagle, dog, sc
[16] = system: dogs; assay: as above
[17] = Rat plasma PK after IV, PO, SC RE104 or 4-OH-DiPT (Example 3); settings: 2 mg/kg RE104 IV, vs AUC0-- of equimolar IV 4-OH-DiPT
Description: The concentration of test compounds was determined in plasma by LC-MS/MS. […] Pharmacokinetic parameters for each analyte and route of administration were estimated from the plasma concentration-versus-time curves for each animal. Head-twitch response (HTR), also referred to as wet dog shakes, was assessed by observing rats for automatisms consisting of rapid and alternating head rotations (González-Maeso et al. and Halberstadt et al.); HTRs were manually counted using 10-minute intervals up to 2 hours after dosing and again at 3, 3.5, and 4 hours after dosing.
as §7
For rat PK assessments, approximately 0.25 mL blood was serially collected at 8 time points over 6 hours (5, 15, 30, and 45 minutes, and 1, 2, 4, and 6 hours after dosing) via a surgically placed carotid artery catheter and immediately transferred to tubes containing K2EDTA on ice. For dog PK assessments, approximately 0.5 mL of blood was collected via superficial vein before dose and at 5 (for IV and SC injections only), 15, and 30 minutes and 1, 2, 4, 8, 16, 24, 48, and 72 hours post dose into tubes containing K2EDTA with 10 mM Dichlorvos as the anticoagulant and stabilizer, respectively. […]

[18] = expressed as zwitterion, 60 kg human, BSA conversion

Q: For CC(C)N(CCc1c[nH]c2cccc(OC(=O)CCCC(=O)O)c12)C(C)C [RE104], which MTD at 14 days ([1]; formulated in PBS) is on record?
A: 75 mg/kg

Q: And the MTD at 14 days ([1]; formulated in WFI)?
A: 150 mg/kg

Q: What about the NOAEL at 14 days ([2]; Sprague Dawley, sc) of the same compound?
A: 10 mg/kg

Q: What about the Cmax ([2]; Sprague Dawley, plasma, sc, 10 mg/kg) of the same compound?
A: 0.751 ng/mL

Q: And the NOAEL at 14 days ([2]; both, Sprague Dawley, sc)?
A: 10 mg/kg

Q: What about the NOAEL at 14 days ([2]; female, subcutaneous) of the same compound?
A: 10 mg/kg

Q: And the “human equivalent dose [HED] of the 10 mg/kg rat dose” value [3, 18]?
A: approximately 97 mg

Q: What about the “low adverse effect level (LOAEL)” value ([3]; male rats) of the same compound?
A: 10 mg/kg

Q: What about the “1/10 of HED” value ([3]; rat) of the same compound?
A: 0.16 mg/kg

Q: What about the “1/10 of Human BSA dose” value ([3]; rat) of the same compound?
A: 9.7 mg

Q: And the “Human BSA dose” value ([3]; rat)?
A: 60 mg/m^2

Q: What about the “fold HED higher than proposed starting dose” value ([3]; rat HED vs 5 mg (zwitterion)) of the same compound?
A: approximately 19 fold

Q: What about the “fold HED higher than maximum proposed dose” value ([3]; rat HED vs 48 mg (zwitterion)) of the same compound?
A: ~2 fold

Q: What about the HED ([3]; rat NOAEL, BSA conversion factors) of the same compound?
A: 1.6 mg/kg

Q: What about the “Human BSA dose” value ([3]; rat, based on a BSA of 1.62 m^2) of the same compound?
A: 97.2 mg

Q: And the “in vitro intrinsic clearance (CLint)” value [4]?
A: 6.66 mL/hr/106 cells

Q: What about the “in vitro intrinsic clearance (CLint)” value [5] of the same compound?
A: 1.14 mL/hr/106 cells

Q: And the “in vitro intrinsic clearance (CLint)” value [6]?
A: 0.87 mL/hr/106 cells

Q: What about the completeness of conversion [7] of the same compound?
A: > 95%

Q: And the “time of conversion to 4-OH-DiPT” value [7]?
A: < 30 min

Q: What about the completeness of conversion [8] of the same compound?
A: > 95%

Q: And the “time of conversion to 4-OH-DiPT” value [8]?
A: < 30 min

Q: And the prodrug remaining [9]?
A: 39%

Q: What about the completeness of conversion [10] of the same compound?
A: > 95%

Q: And the “time of conversion to 4-OH-DiPT” value [10]?
A: < 30 min

Q: And the “share of the total peak area” value [11]?
A: 71.1%

Q: And the AUC(0-inf) ([12]; po, 5 mg/kg)?
A: 21.8 ng·h/mL

Q: What about the AUC(0-t) ([12]; po, 5 mg/kg) of the same compound?
A: 20 ng·h/mL

Q: And the Cmax ([12]; po, 5 mg/kg)?
A: 12.2 ng/mL

Q: What about the Tmax ([12]; po, 5 mg/kg) of the same compound?
A: 30 min

Q: And the bioavailability ([12]; po, 5 mg/kg)?
A: 0.854%

Q: What about the half-life ([12]; po, 5 mg/kg) of the same compound?
A: 78 min

Q: And the AUC(0-t) ([12]; sc, 1 mg/kg)?
A: 658 ng·h/mL

Q: What about the EC50 [13] of the same compound?
A: > 30 µM

Q: What about the IC50 [14] of the same compound?
A: 0.74 µM

Q: What about the Ki ([14]; read-out: binding Ki at the 5-HT2B receptor, CHO cells) of the same compound?
A: 1.8 µM

Q: And the AUC(0-t) ([15]; plasma, 8 mg/kg)?
A: 4540 ng·h/mL

Q: What about the Cmax ([15]; plasma, 8 mg/kg) of the same compound?
A: 3300 ng/mL

Q: And the NOAEL at 14 days ([15]; both, in vivo)?
A: 8 mg/kg

Q: What about the “1/10 of HED” value ([16]; dog) of the same compound?
A: 0.44 mg/kg

Q: And the “1/10 of Human BSA dose” value ([16]; dog)?
A: 25.9 mg

Q: What about the “Human BSA dose” value ([16]; dog) of the same compound?
A: 160 mg/m^2

Q: What about the “safety margin relative to proposed starting dose” value ([16]; dog HED vs 5 mg (zwitterion)) of the same compound?
A: approximately 53 fold

Q: What about the “safety margin relative to proposed maximum dose” value ([16]; dog HED vs 48 mg (zwitterion)) of the same compound?
A: ~5 fold

Q: And the HED ([16]; dog NOAEL, BSA conversion factors)?
A: 4.4 mg/kg

Q: And the “Human BSA dose” value ([16]; dog, based on a BSA of 1.62 m^2)?
A: 259 mg

Q: And the “HED of 8 mg/kg in the dog” value [16, 18]?
A: approximately 267 mg

Q: And the “fm (fraction metabolized)” value [17]?
A: 96.7%
